Assay results reported in patent US20230355557A1, “ANTIVIRAL SOX INHIBITORS” (Gertrude Biomedical Pty LTD, priority 2020, published 2023).

Tests used:
Format in all cases: cell-based
SOX18 [1] = target: T1, SOX18 (Mus musculus, UniProt P43680); assay: VCAM-1 luciferase reporter assay in COS-7 cells transfected with Vcam-1 promoter construct and SOX18; details: VCAM-1 promoter luciferase, 24 hr compound incubation, % of maximal signal without compound
T1 construct: expressed in transfected cells; host or cells: COS-7 (monkey kidney fibroblast-like cells)
T1 sequence (P43680 1-377): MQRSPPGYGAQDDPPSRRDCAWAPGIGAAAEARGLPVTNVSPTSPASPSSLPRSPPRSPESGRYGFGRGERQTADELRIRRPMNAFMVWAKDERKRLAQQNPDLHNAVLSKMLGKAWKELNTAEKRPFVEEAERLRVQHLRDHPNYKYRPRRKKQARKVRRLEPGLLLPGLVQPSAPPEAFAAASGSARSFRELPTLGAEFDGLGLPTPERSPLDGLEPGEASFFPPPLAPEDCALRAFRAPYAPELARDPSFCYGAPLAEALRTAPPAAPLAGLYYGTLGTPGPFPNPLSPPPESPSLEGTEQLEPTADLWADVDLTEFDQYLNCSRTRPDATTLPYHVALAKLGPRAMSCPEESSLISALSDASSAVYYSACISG
Protocol: Monkey kidney fibroblast-like cells (COS-7) were cultured at 37° C. and 5% CO2 in DMEM (Life Technologies, 11995) with fetal bovine serum (FBS), sodium pyruvate, L-glutamine, penicillin, streptomycin, non-essential amino acids, and HEPES. Cells were grown in 96-well plates to 80% confluence and transfected with mouse plasmids pGL2 Vcam-1 promoter construct (VC1889) and pReceiver M49 SOX18, using X-tremeGENE HP DNA transfection reagent (Roche, 6366236001). After 4 hr of transfection, cells were incubated with compounds in 0.5% FBS medium for another 24 hr, before lysis and luciferase assay (Perkin Elmer, 6016711). Results are presented as %inhibition of the maximal signal observed in cells transfected with VCAM-1 and SOX18 without compound incubation.
The second assay measured the interaction between SOX18 and the VCAM-1 promoter (Hosking et al., (2004) J Biol. Chem. 297:5314-5322). […] Without wishing to be bound by theory, it is understood that viral infection can induce an inflammatory response of endothelial cells, the latter being a result of VCAM-1 gene expression which is regulated by SOX18 activity (Huber J. (1994) J Virol. 68(6):3453-8). Put another way, the expression of VCAM-1 is driven by SOX18 so upon virus infection, SOX18 binds to the VCAM promoter and induces expression of VCAM.
The compounds described in Table 2 were tested by the VCAM-1 luciferase reporter assay. The results are shown in Table 2 under the column %inhibition of SOX18.

[2] = test system: Kaposi sarcoma herpesvirus (KSHV); assay: KLEC genome copy number assay in KSHV-infected primary human dermal lymphatic endothelial cells; details: KSHV-infected LECs, 6 days
Protocol: The relative expression of KSHV from control was quantified and single values from n=3 technical replicates are shown. Bars represent mean + SD. P values were calculated using a 2-way ANOVA (left) and ordinary one way-ANOVA (right) followed by Dunnett’s multiple comparison test.
(§1) KSHV-infected cells were incubated with the indicated inhibitor at the concentrations stated in the Figure panels for six days prior to analysis. HeLa cells were incubated with the indicated inhibitor at the concentrations stated in the Figure panels for 24 hours prior to analysis.
Primary human dermal lymphatic (C-12216) endothelial cells (LECs) were purchased from Promocell and grown in Lonza EBM-2 (00190860) supplemented with EGMTM-2 MV Microvascular Endothelial SingleQuotsTM(CC-4147). Cell from passage 1-3 were used.
rKSHV.219 was produced from iSLK.219 cells reactivated using 0.2 µg/ml doxycycline and 1.35 mM NaB for 72 h. Supernatant was harvested, spun down (2000 rpm 5 min) and sterile filtered using […] pore-size filters. Subsequently the supernatant was ultracentrifuged at 22000 rpm for 2 h. The concentrated virus was then aliquoted and stored at -80° C.
Equal number of LECs were seeded into 6-well assay-plates and incubated at 37° C. & 5% CO2 until 80% confluency. After reaching confluency, LECs were infected with rKSHV.219 and incubated at 37° C. & 5% CO2 for 3 days, making sure that the cell density remained similar. Cell were subsequently mixed at a 2:3 ratio with uninfected LECs for 2 days. Once GFP expression and cell spindling was observed the culture medium was replaced with medium containing the experimental compounds with 0.25% DMSO (v/v) at concentrations from 0.1 uM to 50 uM. After 3 days of incubation, the cells were replenished with new medium containing experimental compounds and incubated for 3 more days.
After compound incubation, cells were collected and genomic and viral DNA was extracted using the NucleoSpin Tissue Kit (Macherey-Nagel, 740952) following the kit’s standard protocol. qPCR was subsequently completed (SYBR Green, ThermoFisher K0222) in triplicates using primers for viral K8.1 and Human genomic actin. K8.1 forward primer: […] (SEQ ID NO:1); reverse primer: […] (SEQ ID NO:2). Genomic acid forward primer: […] (SEQ ID NO:3); reverse primer: […] (SEQ ID NO:4).
A KLEC assay was used to examine the ability of the compounds to inhibit viral copy number in virus infected primary human dermal lymphatic endothelial cells (LECs).

SOX18 [3] = target: T2, SOX18 (Homo sapiens, UniProt P35713); assay: SOX18 luciferase reporter assay (7XTR and OriA reporters) in HeLa cells; details: HeLa cells transfected with SOX18 and 7xTR or OriA reporter, 24 hours treatment (FIG. 2)
T2 construct: expressed in transfected cells; host or cells: HeLa
T2 sequence (P35713 1-384): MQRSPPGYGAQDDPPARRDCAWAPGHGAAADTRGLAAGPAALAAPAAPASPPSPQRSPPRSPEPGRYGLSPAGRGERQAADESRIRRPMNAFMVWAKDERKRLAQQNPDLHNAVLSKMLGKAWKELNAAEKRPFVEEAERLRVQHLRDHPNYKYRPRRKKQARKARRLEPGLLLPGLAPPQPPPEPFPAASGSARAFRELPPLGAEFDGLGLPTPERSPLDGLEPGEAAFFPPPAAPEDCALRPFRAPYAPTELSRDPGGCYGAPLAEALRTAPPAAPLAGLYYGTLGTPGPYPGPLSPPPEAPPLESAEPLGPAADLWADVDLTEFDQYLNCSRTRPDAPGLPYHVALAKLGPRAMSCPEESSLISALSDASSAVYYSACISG
Protocol: Luciferase signal was quantified and single values from n=3 technical replicates are shown. Data points represent mean + SD. P values were calculated using a 2-way and ordinary one way ANOVA followed by Dunnett’s multiple comparison test.
as §1
HeLa cells were cultured in DMEM containing 10% FCS, 1% L-glutamine and 1% pen/strep at 37° C. & 5% CO2. Cells were seeded at a density of 7000 cells per well in 125 µL of the maintenance medium in a 96-well format for 24 hours.
Plasmids were transfected using FuGENE HD Transfection Reagent (Promega E2311) (1:4 DNA to reagent ratio) and Opti-MEM (ThermoFisher 31985062). OriA-luc negative control and experimental wells contained 25 ng OriA-luc plasmid and 10 ng SOX18 plasmid per well, positive control contained 25 ng OriA-luc plasmid and 10 ng mCherry plasmid per well. 7XTR-luc negative control and experimental wells contained 50 ng 7XTR-luc plasmid and 20 ng SOX18 plasmid per well, positive control contained 50 ng 7XTR-luc plasmid and 20 ng mCherry plasmid per well. Cell were incubated for 18 hours before cells were replenished with new medium containing experimental compounds and incubated for 24 hours.
Luminescence was measured by adding an equal volume of Steady-Glo reagent to cells at room temperature and luminescence was quantified using the FLUOstar plate reader (BMG Labtech, FLUOstar Omega; 4 sec intervals per well).
Activation of these genes was measured using HeLa cells that were transfected with luciferase-reporters harbouring either seven copies of the TR (7XTR) or the OriA promoter fused to OriLyt upstream of an SV40 promoter and a firefly luciferase reporter. ORF, that binds to the OriLyt and is a potent activator of this reporter (Chen J et al., (2009) Virology 386:290-302) was used as a positive control. […]

COc1cccc(COCc2ccc3ccccc3c2)c1C(=O)O [GB006, 2-methoxy-6-((naphthalen-2-ylmethoxy)methyl)benzoic acid]
%inhibition of Sox18 (SOX18 [1]): 19.33%

COc1cccc(/C=C/c2ccc3ccccc3c2)c1C(=O)O [GB002, (E)-2-methoxy-6-(2-(naphthalen-2-yl)vinyl)benzoic acid]
reduction in KSHV genome copy number (fold change) ([2]; 50 µM): Significant reduction in genome copy number
interference with SOX18-mediated gene transcription (luciferase signal) (SOX18 [3]): interferes with SOX18-mediates gene transcription
%inhibition of Sox18 (SOX18 [1]): 30.78%

O=C(O)c1c(O)cccc1CCc1ccccc1 [GB003, 2-hydroxy-6-phenethylbenzoic acid]
%inhibition of Sox18 (SOX18 [1]): 49.18%

COc1ccc(CCc2cccc(OC)c2C(=O)O)cc1 [GB005, 2-methoxy-6-(4-methoxyphenethyl)benzoic acid]
%inhibition of Sox18 (SOX18 [1]): 25.32%

O=C(O)c1c(O)cc(Cl)cc1CCc1ccc2ccccc2c1 [GB019, 4-chloro-2-hydroxy-6-(2-(naphthalen-2-yl)ethyl)benzoic acid]
%inhibition of Sox18 (SOX18 [1]): 54.02%

O=C(O)c1c(O)cccc1CCc1ccc2ccccc2c1 [GB001, 2-hydroxy-6-(2-(naphthalen-2-yl)ethyl)benzoic acid]
reduction in KSHV genome copy number (fold change) ([2]; 10 µM): Significant reduction in genome copy number
reduction in KSHV genome copy number (fold change) ([2]; 50 µM): Significant reduction in genome copy number
interference with SOX18-mediated gene transcription (luciferase signal) (SOX18 [3]): interferes with SOX18-mediates gene transcription
%inhibition of Sox18 (SOX18 [1]): 99.10%

COc1cc(O)c(C(=O)O)c(CCc2ccc3ccccc3c2)c1 [GB025, 2-hydroxy-4-methoxy-6-(2-(naphthalen-2-yl)ethyl)benzoic acid]
%inhibition of Sox18 (SOX18 [1]): 67.19%

O=C(O)c1c(O)cccc1CCc1ccc(Cl)cc1Cl [GB004, 2-(2,4-dichlorophenethyl)-6-hydroxybenzoic acid]
reduction in KSHV genome copy number (fold change) ([2]; 5 µM): Significant reduction in genome copy number
interference with SOX18-mediated gene transcription (luciferase signal) (SOX18 [3]): interferes with SOX18-mediates gene transcription
%inhibition of Sox18 (SOX18 [1]): 48.26%

COc1cccc(CCc2cccc3ccccc23)c1C(=O)O [GB027, 2-methoxy-6-(2-(naphthalen-1-yl)ethyl)benzoic acid]
%inhibition of Sox18 (SOX18 [1]): 47.43%

COC(=O)c1c(O)cccc1CCc1ccc(Cl)cc1 [GB028, methyl 2-(4-chlorophenethyl)-6-hydroxybenzoate]
%inhibition of Sox18 (SOX18 [1]): 48.31%

Cc1cc(O)c(C(=O)O)c(CCc2ccc3ccccc3c2)c1 [GB012, 2-hydroxy-4-methyl-6-(2-(naphthalen-2-yl)ethyl)benzoic acid]
%inhibition of Sox18 (SOX18 [1]): 96.7%

COC(=O)c1c(O)cccc1/C=C/c1ccccc1 [GB026, methyl (E)-2-hydroxy-6-styrylbenzoate]
%inhibition of Sox18 (SOX18 [1]): 49.66%
